Results as given in ChEMBL document CHEMBL1201862, “PubChem BioAssay data set” (2004).
One block for each compound: values may come before it. The source made the active and inactive calls.

Tests used:
[1] = molecular target: Eukaryotic translation initiation factor 4H (Homo sapiens, UniProt Q15056); test: human eIF4H binding inhibitors, primary screen, translation initiation inhibitor project, biochemical, uHTS, fluorescence polarization (AID 2012)
BJ [2] = test: cytotoxicity toward BJ-TERT fibroblasts, dose response, cell-based, RAS-independent, luminescence (AID 1933); assay type: functional; conditions: Homo sapiens
BJ [3] = test: cells; assay type: functional, cell-based; conditions: Homo sapiens
Estrogen receptor = Estrogen receptor (Homo sapiens, UniProt P03372);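 note: potency for inhibiting coactivator peptide recruitment to the receptor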
Estrogen receptor beta = Estrogen receptor beta (Homo sapiens, UniProt Q92731);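 note: recombinant ER-beta bound to coactivator SRC1 peptide in presence of estradiol agonist; inhibitors block coactivator peptide binding and lower the FRET signal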
BJ [4] = test: cytotoxicity toward BJ-TERT-LT-ST fibroblasts, dose response, cell-based, RAS-independent, luminescence (AID 1935); assay type: functional; conditions: Homo sapiens;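 note: BJ fibroblasts immortalized with TERT plus LT and ST oncogenes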
[5] = cytotoxicity toward DRD oncogenic fibroblasts, dose response, cell-based, non-viral oncogenic, luminescence (AID 1934); assay type: functional; conditions: Homo sapiens
[6] = molecular target: Polyadenylate-binding protein 1 (Homo sapiens, UniProt P11940); test: PABP poly(A) RNA binding inhibitors, primary screen, biochemical, fluorescence polarization, uHTS (AID 2014)
[7] = cytotoxicity in HEK-293T cells, dose response, cytotoxicity control for TCR NF-kB inhibitor project, luminescence, T-cell screen hits (AID 489026); assay type: functional, cell-based;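 note: cells exposed to compound about 14 hours before the viability readout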
[8] = molecular target: T1, Delta-type opioid receptor (Homo sapiens, UniProt P41143); test: HTS Image-Based Screen for Antagonists of the DOR Receptor. [Related pubchem assays (depositor defined):AID1777, AID1785, AID1786, AID2133]; assay type: functional
Mu-type opioid receptor [9] = molecular target: T2, Mu-type opioid receptor (Homo sapiens, UniProt P35372); test: HTS Image-Based Screen for Agonists of the MOR Receptor. [Related pubchem assays (depositor defined):AID1777, AID1785, AID1786, AID2133]; assay type: functional
[10] = molecular target: T1, Delta-type opioid receptor; test: HTS Image-Based Screen for Agonists of the DOR Receptor. [Related pubchem assays (depositor defined):AID1777, AID1786, AID2133]; assay type: functional
[11] = molecular target: T3, Kappa-type opioid receptor (Homo sapiens, UniProt P41145); assay type: functional
[12] = molecular target: T3, Kappa-type opioid receptor; assay type: functional; remark: listed apart in the source
[13] = molecular target: T3, Kappa-type opioid receptor; test: SAR analysis of small molecule agonists of the kappa opioid receptor via a luminescent beta-arrestin assay. [Related pubchem assays (depositor defined):AID1777, AID1786, AID1966, AID2133, AID2136, AID2348, AID2352, AID2357, AID2359, AID2370, AID2420, AID2478, AID2491, AID2492, AID2493, AID2497, AID2498, AID2500, AID449737, AID488822, AID488842]; assay type: functional
Mu-type opioid receptor [14] = molecular target: T2, Mu-type opioid receptor; test: MOR agonists by imaging, SAR follow-up, image-based (AID 2352); assay type: functional
[15] = molecular target: T1, Delta-type opioid receptor; test: DOR agonists, SAR follow-up, image-based (AID 2370); assay type: functional
[16] = molecular target: T3, Kappa-type opioid receptor; test: KOR antagonists by imaging, SAR follow-up, image-based (AID 2348); assay type: functional
Mu-type opioid receptor [17] = molecular target: T2, Mu-type opioid receptor; test: MOR antagonists, SAR follow-up, image-based (AID 2420); assay type: functional;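 note: compounds added before stimulation of receptor with agonist DAMGO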
[18] = molecular target: T3, Kappa-type opioid receptor; test: KOR agonist analogs, imaging readout, SAR follow-up, image-based (AID 2359); assay type: functional
[19] = molecular target: T1, Delta-type opioid receptor; test: DOR antagonists, SAR follow-up, image-based (AID 2357); assay type: functional
[20] = molecular target: G2/mitotic-specific cyclin-B1 (Homo sapiens, UniProt P14635); test: Counterscreen assay for inhibitors of Wee1 degradation: dose response cell-based assay to identify inhibitors of cyclin B degradation. [Related pubchem assays: 1410, 1321 ]; assay type: functional
Wee1-like protein kinase = Wee1-like protein kinase (Homo sapiens, UniProt P30291); test: Dose Response Cell-based Assay for Inhibitors of Wee1 Degradation. [Related pubchem assays: 1410, 1321 ]; assay type: functional
[21] = molecular target: Mitogen-activated protein kinase 10 (Homo sapiens, UniProt P53779); test: Dose response biochemical screening assay for inhibitors of c-Jun N-Terminal Kinase 3 (JNK3). [Related pubchem assays: 746 ]
Jurkat = test: antigen receptor-induced NF-kB inhibitors, dose response, Jurkat, luciferase reporter, luminescence, B- and T-cell (AID 489004); assay type: functional, cell-based; conditions: Homo sapiens;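 note: NF-kB luciferase reporter Jurkat cells stimulated with PMA plus ionomycin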
[22] = cytotoxicity in HEK-293T NF-kB-Luc cells, dose response, cytotoxicity control for B/T-cell NF-kB inhibitor project, cell-based, uHTS hits (AID 489019); assay type: functional;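 note: IC50 reflects cytotoxicity as loss of cell viability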
[23] = molecular target: Acyl-homoserine lactone acylase PvdQ (Pseudomonas aeruginosa (strain LESB58), UniProt Q9I194); test: P. aeruginosa PvdQ acylase inhibitors, dose response, biochemical, fluorescence, plate reader and imaging, cherry-picks (AID 493231)
Mucolipin-3 [24] = molecular target: T4, Mucolipin-3 (Homo sapiens, UniProt Q8TDD5); test: Dose response cell-based high-throughput screening assay for agonists of the transient receptor potential channel ML3 (TRPML3). [Related pubchem assays: 1526, 1424, 1448 ]; assay type: functional
T4 sequence (Q8TDD5 whole entry): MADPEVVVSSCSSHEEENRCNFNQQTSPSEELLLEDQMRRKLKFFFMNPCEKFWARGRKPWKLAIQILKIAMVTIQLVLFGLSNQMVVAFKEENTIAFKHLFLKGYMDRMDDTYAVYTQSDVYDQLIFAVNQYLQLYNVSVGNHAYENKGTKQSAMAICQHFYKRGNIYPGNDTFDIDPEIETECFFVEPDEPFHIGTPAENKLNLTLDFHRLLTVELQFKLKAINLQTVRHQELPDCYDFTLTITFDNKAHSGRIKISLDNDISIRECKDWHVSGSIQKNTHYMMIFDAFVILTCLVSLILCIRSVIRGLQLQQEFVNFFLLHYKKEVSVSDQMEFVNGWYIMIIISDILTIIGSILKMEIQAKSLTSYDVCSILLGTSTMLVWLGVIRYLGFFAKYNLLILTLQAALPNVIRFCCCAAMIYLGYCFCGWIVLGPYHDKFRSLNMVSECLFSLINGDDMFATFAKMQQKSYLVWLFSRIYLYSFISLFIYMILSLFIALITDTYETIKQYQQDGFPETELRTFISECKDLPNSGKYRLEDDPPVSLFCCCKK

Ion channel NompC [25] = molecular target: T5, Ion channel NompC (Danio rerio, UniProt Q7T1G6); test: Fluorescence counterscreen assay for TRPML3 agonists: dose response cell-based high-throughput screening assay to identify agonists of the transient receptor potential channel N1 (TRPN1). [Related pubchem assays: 1526, 1424, 1448 ]; assay type: functional
Mucolipin-3 [26] = molecular target: T4, Mucolipin-3; test: TRPML3 and TRPML2 channel agonists, cell-based, patch clamp, Fura-2 profiling panel, panel member TRPML3 Dose Response (AID 2116)
Ion channel NompC [27] = molecular target: T5, Ion channel NompC; test: TRPML3 and TRPML2 channel agonists, cell-based, patch clamp, Fura-2 profiling panel, panel member TRPN1 Dose Response (AID 2116)
HeLa = test: HeLa cell cytotoxicity, dose response, cytotoxicity control, 24 h, cherry-picked samples (AID 504726); assay type: functional, cell-based; conditions: Homo sapiens;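 note: potency for cytotoxicity as loss of luminescence signal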
Cytochrome P450 2C19 = Cytochrome P450 2C19 (Homo sapiens, UniProt P33261); test: Cytochrome panel assay with activity outcomes. Panel member name: p450-cyp2c19 Compounds with AC50 equal or less than 10 uM are considered active; assay type: functional; conditions: read-out: AC50
[28] = molecular target: DNA (cytosine-5)-methyltransferase 1 (Homo sapiens, UniProt P26358); test: DNMT1 methyltransferase inhibitors, confirmation, biochemical, fluorescent molecular beacon (AID 602386); assay type: functional
[29] = THP-1 cell cytotoxicity, dose response, cytotoxicity control for Vif-APOBEC3G degradation inhibitor project, THP-1 cells (AID 1117359); assay type: functional; conditions: Human immunodeficiency virus 1, THP-1
Cytochrome P450 2C9 = Cytochrome P450 2C9 (Homo sapiens, UniProt P11712)
[30] = molecular target: Dual specificity protein phosphatase 3 (Homo sapiens, UniProt P51452); test: VHR1 inhibitor Ki determination, SAR follow-up, biochemical, colorimetric (AID 2004)
[31] = Luminescence Cell-Based Dose Retest to Confirm Inhibitors of Cancer Stem Cells. [Related pubchem assays (depositor defined):AID2717, AID2721]; assay type: functional; conditions: Homo sapiens
[32] = molecular target: T6, Ubiquitin-conjugating enzyme E2 N (Homo sapiens, UniProt P61088); assay type: functional;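 note: Dose-response confirmation in a TR-FRET assay detecting UBC13-driven polyubiquitin chain formation, inhibition measured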
T6 sequence (P61088 whole entry): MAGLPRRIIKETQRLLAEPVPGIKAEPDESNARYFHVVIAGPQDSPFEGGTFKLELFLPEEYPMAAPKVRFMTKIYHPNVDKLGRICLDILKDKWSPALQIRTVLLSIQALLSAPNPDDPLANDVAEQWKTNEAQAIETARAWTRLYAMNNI

[33] = molecular target: Cyclin-dependent kinase 5/CDK5 activator 1 (Homo sapiens, UniProt Q00535); test: CDK5/p35 kinase inhibitors, dose response, biochemical, cherry-picked samples, set 2 (AID 504545)
Aspartyl aminopeptidase = Aspartyl aminopeptidase (Plasmodium falciparum 3D7, UniProt Q8I2J3)
Procathepsin L = Procathepsin L (Homo sapiens, UniProt P07711)
Large T antigen = Large T antigen (Simian virus 40, UniProt P03070); assay type: functional, Betapolyomavirus macacae;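 note: Confirmatory-stage PubChem screen for compounds that inhibit SV40 T antigen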

T3 sequence (P41145 whole entry): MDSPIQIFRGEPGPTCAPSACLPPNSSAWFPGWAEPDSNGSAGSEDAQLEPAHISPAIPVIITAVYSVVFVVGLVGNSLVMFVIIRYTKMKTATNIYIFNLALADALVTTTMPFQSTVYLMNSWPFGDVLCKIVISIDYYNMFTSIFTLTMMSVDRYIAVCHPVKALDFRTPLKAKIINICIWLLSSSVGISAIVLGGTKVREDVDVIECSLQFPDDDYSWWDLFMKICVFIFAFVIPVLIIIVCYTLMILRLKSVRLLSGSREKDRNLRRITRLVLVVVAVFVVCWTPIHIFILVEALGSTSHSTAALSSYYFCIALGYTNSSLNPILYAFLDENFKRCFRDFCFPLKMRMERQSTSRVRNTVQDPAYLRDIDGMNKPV
T2 sequence (P35372 whole entry): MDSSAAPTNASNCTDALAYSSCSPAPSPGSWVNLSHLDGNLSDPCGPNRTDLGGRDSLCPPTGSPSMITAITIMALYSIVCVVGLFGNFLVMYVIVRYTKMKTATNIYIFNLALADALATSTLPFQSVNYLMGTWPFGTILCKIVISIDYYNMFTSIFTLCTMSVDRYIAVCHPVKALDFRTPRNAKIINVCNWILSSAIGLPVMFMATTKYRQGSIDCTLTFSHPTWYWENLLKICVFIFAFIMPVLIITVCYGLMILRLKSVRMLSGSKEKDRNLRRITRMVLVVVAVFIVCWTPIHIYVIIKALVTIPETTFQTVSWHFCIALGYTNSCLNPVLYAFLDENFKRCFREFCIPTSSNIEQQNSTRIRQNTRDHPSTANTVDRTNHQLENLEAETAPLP
T1 sequence (P41143 whole entry): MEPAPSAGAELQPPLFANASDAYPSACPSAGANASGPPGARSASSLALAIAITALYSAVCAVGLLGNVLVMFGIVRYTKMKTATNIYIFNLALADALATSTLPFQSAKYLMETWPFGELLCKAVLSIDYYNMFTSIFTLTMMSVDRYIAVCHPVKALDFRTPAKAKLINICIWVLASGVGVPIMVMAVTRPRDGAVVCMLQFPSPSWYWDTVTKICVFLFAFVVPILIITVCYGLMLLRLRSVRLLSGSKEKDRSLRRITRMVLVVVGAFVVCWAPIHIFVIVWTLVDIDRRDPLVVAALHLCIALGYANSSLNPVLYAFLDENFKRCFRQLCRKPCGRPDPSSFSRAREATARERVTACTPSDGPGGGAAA
T5 sequence (Q7T1G6 whole entry): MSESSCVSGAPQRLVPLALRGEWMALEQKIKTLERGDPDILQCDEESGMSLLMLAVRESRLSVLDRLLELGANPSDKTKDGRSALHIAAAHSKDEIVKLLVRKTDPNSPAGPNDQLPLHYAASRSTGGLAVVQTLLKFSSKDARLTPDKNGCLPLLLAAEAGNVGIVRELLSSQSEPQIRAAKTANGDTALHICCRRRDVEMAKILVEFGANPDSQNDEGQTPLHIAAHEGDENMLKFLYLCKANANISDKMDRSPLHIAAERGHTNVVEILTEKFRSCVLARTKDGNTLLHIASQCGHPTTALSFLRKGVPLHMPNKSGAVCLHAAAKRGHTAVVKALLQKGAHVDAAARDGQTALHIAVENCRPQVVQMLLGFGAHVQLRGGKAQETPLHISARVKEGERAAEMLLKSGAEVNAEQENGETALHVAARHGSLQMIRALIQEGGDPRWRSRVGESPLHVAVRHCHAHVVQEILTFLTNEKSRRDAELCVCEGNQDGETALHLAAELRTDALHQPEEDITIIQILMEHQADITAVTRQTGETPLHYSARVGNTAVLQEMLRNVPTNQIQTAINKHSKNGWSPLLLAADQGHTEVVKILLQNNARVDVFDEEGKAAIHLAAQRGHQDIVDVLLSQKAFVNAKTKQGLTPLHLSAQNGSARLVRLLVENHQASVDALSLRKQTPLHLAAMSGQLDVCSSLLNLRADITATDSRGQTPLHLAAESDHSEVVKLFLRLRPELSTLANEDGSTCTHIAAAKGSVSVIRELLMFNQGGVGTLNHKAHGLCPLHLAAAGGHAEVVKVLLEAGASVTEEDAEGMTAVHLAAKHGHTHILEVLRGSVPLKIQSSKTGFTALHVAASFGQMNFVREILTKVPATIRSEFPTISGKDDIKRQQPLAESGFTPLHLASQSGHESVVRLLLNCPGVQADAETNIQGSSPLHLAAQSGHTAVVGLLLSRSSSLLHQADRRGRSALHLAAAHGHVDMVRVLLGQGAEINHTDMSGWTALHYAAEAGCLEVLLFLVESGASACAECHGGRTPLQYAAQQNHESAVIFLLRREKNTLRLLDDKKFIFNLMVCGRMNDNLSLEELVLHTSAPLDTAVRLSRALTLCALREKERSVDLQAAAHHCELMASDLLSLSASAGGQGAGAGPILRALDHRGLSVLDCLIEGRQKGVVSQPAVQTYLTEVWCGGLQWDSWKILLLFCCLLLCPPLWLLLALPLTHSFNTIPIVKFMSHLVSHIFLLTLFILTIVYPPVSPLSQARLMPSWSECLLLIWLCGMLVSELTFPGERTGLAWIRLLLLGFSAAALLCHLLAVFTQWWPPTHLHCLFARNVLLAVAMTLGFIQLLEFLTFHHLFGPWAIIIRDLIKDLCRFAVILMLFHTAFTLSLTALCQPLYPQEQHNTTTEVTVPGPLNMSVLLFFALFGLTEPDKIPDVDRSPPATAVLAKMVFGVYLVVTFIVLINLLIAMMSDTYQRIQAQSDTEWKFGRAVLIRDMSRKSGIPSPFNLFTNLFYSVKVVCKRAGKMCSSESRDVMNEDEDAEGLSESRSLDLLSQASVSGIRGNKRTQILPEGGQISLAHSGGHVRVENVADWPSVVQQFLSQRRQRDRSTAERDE
Sequence of Acyl-homoserine lactone acylase PvdQ (Q9I194 24-193 limits assumed): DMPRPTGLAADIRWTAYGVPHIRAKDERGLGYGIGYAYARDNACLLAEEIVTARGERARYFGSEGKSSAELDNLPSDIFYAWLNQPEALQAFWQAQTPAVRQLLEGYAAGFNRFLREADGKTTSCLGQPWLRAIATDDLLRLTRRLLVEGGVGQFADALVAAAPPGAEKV
Sequence of Acyl-homoserine lactone acylase PvdQ (Q9I194 217-762 limits assumed): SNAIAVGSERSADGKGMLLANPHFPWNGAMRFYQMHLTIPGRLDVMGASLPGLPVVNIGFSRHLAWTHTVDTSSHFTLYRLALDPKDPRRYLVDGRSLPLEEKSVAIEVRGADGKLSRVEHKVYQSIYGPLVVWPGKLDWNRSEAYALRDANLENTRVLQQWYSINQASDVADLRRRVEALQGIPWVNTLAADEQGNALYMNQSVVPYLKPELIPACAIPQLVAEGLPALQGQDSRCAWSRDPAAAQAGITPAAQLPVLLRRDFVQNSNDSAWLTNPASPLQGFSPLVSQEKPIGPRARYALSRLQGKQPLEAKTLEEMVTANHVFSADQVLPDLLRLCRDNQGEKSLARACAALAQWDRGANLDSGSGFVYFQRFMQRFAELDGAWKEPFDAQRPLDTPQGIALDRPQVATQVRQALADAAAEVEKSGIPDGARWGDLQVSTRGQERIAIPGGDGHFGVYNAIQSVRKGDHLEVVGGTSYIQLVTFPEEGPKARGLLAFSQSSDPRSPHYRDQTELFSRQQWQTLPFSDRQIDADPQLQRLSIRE
Sequence of Estrogen receptor (P03372 whole entry): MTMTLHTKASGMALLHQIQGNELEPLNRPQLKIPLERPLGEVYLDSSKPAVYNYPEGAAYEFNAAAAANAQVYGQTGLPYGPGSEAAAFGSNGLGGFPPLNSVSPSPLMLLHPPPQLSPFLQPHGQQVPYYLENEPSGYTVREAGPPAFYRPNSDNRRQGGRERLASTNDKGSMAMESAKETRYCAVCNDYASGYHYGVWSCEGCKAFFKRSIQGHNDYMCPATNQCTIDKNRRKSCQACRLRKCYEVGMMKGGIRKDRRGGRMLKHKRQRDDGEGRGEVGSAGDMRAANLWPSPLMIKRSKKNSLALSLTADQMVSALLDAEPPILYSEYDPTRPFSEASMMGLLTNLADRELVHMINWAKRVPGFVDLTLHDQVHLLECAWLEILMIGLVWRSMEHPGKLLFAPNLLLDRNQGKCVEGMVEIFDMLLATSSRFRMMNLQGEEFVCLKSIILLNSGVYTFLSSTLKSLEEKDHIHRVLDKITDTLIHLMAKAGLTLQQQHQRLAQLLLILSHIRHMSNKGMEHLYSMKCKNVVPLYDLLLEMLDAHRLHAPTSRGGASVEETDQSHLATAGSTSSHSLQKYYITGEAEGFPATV
Sequence of Polyadenylate-binding protein 1 (P11940 whole entry): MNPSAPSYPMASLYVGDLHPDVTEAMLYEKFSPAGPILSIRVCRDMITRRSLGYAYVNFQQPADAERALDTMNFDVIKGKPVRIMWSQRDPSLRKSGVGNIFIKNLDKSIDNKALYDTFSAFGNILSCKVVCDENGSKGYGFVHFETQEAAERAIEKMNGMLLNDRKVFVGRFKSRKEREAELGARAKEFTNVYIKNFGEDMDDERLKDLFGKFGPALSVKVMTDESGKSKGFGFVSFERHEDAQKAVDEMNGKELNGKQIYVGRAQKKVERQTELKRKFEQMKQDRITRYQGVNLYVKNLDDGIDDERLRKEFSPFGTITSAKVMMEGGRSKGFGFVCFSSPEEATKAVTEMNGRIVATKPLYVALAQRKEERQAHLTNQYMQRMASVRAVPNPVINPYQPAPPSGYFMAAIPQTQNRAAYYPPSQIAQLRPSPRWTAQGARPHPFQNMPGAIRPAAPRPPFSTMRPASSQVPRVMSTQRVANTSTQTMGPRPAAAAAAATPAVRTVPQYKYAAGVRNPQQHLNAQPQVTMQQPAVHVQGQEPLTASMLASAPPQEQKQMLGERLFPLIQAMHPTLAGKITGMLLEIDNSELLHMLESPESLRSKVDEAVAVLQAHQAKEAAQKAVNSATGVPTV

Compound: C/C=C/COC(=O)c1[nH]c2c(c1C)C(=O)CC(c1ccco1)C2 (stereo not drawn)
IC50 [1]: 21.7 µM (active)
EC50 (BJ [2]): 2.84 µM (inconclusive)
EC50 (BJ [3]): 2.76 µM (active)
IC50 (Estrogen receptor): 24.7 µM (active)
IC50 (Estrogen receptor beta): > 50 µM (not active)
EC50 (BJ [4]): 4.74 µM (inconclusive)
EC50 [5]: 2.76 µM (active)
IC50 [6]: 45.8 µM (active)
IC50 [7]: > 80 µM (inactive)

IC50 [8]: > 32 µM (inactive)
EC50 (Mu-type opioid receptor [9]): > 32 µM (inactive)
EC50 [10]: > 32 µM (inactive)
EC50 [11]: 11.5 µM
EC50 [12]: 11 µM
EC50 [13]: > 10 µM (inactive)
EC50 (Mu-type opioid receptor [14]): > 32 µM (inactive)
EC50 [15]: > 32 µM (inactive)
IC50 [16]: > 32 µM (inactive)
IC50 (Mu-type opioid receptor [17]): > 32 µM (inactive)
EC50 [18]: 4.88 µM (active)
IC50 [19]: > 32 µM (inactive)
Compound: COc1ccc(CN(CC2CCCO2)C(=O)CN2C(=O)COc3ccccc32)cc1OC (stereo not drawn)

Compound: Cc1ccnc(NC(=O)CCCOc2cc(=O)n(C)c3ccccc23)c1
EC50 [20]: > 49.7 µM (not active)
EC50 (Wee1-like protein kinase): 7.87 µM (active)
IC50 [21]: 62.4 µM (not active)
IC50 (Jurkat): 6.22 µM (active)
IC50 [22]: > 80 µM (inactive)

Compound: O=[N+]([O-])c1ccc(Sc2ccccc2Cl)nc1
AC50 [23]: 33.2 µM (active)

EC50 (Mucolipin-3 [24]): 1.43 µM (active)
EC50 (Ion channel NompC [25]): > 29.9 µM (not active)
EC50 (Mucolipin-3 [26]): 2 µM (active)
EC50 (Ion channel NompC [27]): > 29.9 µM (inactive)
Compound: Cc1ccc(N2CCN(S(=O)(=O)N3CCCCC3)CC2)c(C)c1

Compound: COC(=O)\C(C(C)=O)=C(/C=C/C=C/C=C/N(C)C)N(C)C
AC50 (HeLa): 274 µM (active)
AC50 (Cytochrome P450 2C19): 14.1 µM (inconclusive)
IC50 [28]: 8.38 µM (active)
CC50 [29]: > 40 µM (active)
AC50 (Cytochrome P450 2C9): 15.8 µM (inconclusive)

Compound: COc1ccc(-c2csc(Nc3ccc(N)cc3)n2)cc1OC
Ki [30]: 71.1 µM (inactive)

Compound: CC[C@H](CO)Nc1nc(Nc2cccc(Cl)c2)c2ncn(C(C)C)c2n1
AC50 [31]: 6.4 µM (active)
IC50 [32]: > 20 µM (inactive)
AC50 [33]: 0.275 µM (active)

Compound: N/C(=N\N=C\c1ccc(O)cc1O)N[N+](=O)[O-]
IC50 (Aspartyl aminopeptidase): 4.61 µM (active)
IC50 (Procathepsin L): > 59.6 µM (not active)
IC50 (Large T antigen): 8.78 µM (active)
